# Assay results as given in patent US20100022541A1, “Chemical inhibitors of bacterial heptose synthesis, methods for their preparation and biological applications of said inhibitors” (priority 2006, published 2010).
# Biological target: T1, RfaE (Escherichia coli, UniProt P76658)
# T1 construct: made in house; host or cells: E. coli
# Assay: Inhibition of the enzymatic activity of RfaE (HTS luminescent or fluorescent biochemical assay)
# Set-up: species or system E. coli
# Settings: dose-response, FIG. 1
# Method: According to another object, the invention also relates to a method for assessing RfaE enzymatic activity. • Said method comprises • pre-incubating at room temperature • DMSO or inhibitor to be tested dissolved in DMSO and RfaE in an assay buffer • and either • adding a reaction mixture composed of RfaE, β-heptose-7-phosphate, ATP, in the assay buffer and incubating at room temperature • adding a revelation mixture composed of luciferase, D-luciferin and N-acetylcysteamine • measuring the luminescence intensity and converting into inhibition % to further calculate the IC50 values; • or • adding a reaction mixture composed of RfaE, β-heptose-7-phosphate ATP, pyruvate kinase, phosphoenolpyruvate, lactate dehydrogenase and NADH in said assay buffer, • measuring the fluorescence intensity of NADH kinetically and deriving inhibition % from fitted initial velocities, to further calculate the IC50 values.
# Inhibition of the Enzymatic Activity of RfaE
# RfaE is a kinase belonging to the ribokinase family. It catalyses an essential step of the biosynthesis of L-ADP-Heptose, namely the phosphorylation of β-heptose-7-phosphate (H7P) into β-heptose-1,7-bisphosphate (H17P). RfaE assays as described in the literature are essentially based on direct HLPC detection of the substrates H7P and ATP, and of the products H17P and ADP, raising obvious limitations for HTS applications. The assays described below are based either on luminescent ATP detection, or on fluorescent ADP detection. They are easily amenable to miniaturized formats and fast readouts as required by HTS.
# The assay buffer “AB” contains 50 mM Hepes pH7.5, 1 mM MnCl2, 25 mM KCl, 0.012% Triton-X100 and 1 mM DTT. The following components are added in a white polystyrene Costar plate up to a final volume of 31 μL: 3 μL DMSO, or inhibitor dissolved in DMSO and 28 μL RfaE in AB. After 30 min of pre-incubation at room temperature, 29 μL of Substrates mix in AB are added in each well to a final volume of 60 μL. This reaction mixture is then composed of 3 nM RfaE (produced in house from E. coli), 0.2 μM β-heptose-7-phosphate (in house synthesis) and 0.2 μM ATP (Sigma) in assay buffer. After 40 min of incubation at room temperature, 200 μL of the revelation mix are added to a final volume of 260 μL, including the following constituents at the respective final concentrations: 2 nM luciferase (Sigma), 30 μM D-luciferin (Sigma), 100 μM N-acetylcysteamine (Aldrich). Luminescence intensity is immediately measured on an Analyst-HT (Molecular Devices) and converted into inhibition percentages. For IC50 determinations, the inhibitor is tested at 6 to 10 different concentrations, and the related inhibitions are fitted to a classical langmuir equilibrium model using XLFIT (IDBS).
# The assay buffer “AB” contains 50 mM Hepes pH7.5, 1 mM MnCl2, 25 mM KCl, 0.012% Triton-X100 and 1 mM DTT. The following components are added in a black polystyrene Costar plate up to a final volume of 50 μL: 5 μL DMSO, or inhibitor dissolved in DMSO and 45 μL RfaE in AB. After 30 min of pre-incubation at room temperature, 50 μL of Substrates-revelation mix in AB are added in each well to a final volume of 100 μL. This reaction mixture is then composed of 66 μM RfaE (produced in house from E. coli), 1 μM β-heptose-7-phosphate (in house synthesis), 50 μM ATP (Sigma), 5 u/mL Pyruvate Kinase (Sigma), 50 μM phosphoenolpyruvate (Sigma), 5 u/mL Lactate dehydrogenase (Sigma) and 2.5 μM NADH (Sigma) in assay buffer. Fluorescence intensity of NADH (λex=360 nm, λem=520 nm) is immediately measured kinetically by a Fluostar Optima (BMG). Inhibition percentages are derived from fitted initial velocities. For IC50 determinations, the inhibitor is tested at 6 to 10 different concentrations, and the related inhibitions are fitted to a classical langmuir equilibrium model using XLFIT (IDBS).
# T1 sequence (P76658 whole entry): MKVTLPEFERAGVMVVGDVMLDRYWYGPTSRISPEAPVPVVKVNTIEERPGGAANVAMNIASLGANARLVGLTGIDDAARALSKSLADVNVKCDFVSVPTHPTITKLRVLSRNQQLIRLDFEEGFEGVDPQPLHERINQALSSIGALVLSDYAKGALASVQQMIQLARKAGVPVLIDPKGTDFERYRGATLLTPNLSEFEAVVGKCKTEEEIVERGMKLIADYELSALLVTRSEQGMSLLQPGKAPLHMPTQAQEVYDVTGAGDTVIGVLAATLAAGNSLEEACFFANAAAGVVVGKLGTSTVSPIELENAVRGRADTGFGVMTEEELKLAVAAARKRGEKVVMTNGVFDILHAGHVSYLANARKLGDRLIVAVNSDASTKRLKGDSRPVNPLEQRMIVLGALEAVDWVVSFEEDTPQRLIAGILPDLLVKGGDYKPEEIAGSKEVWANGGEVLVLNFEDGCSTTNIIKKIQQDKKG
row,Structure (SMILES),Inhibition of RfaE biochemical activity (FIG. 1)
1,"Cc1oc(-c2cccc([N+](=O)[O-])c2)nc1C(=O)N(CC(=O)O)Cc1ccccn1 [Example XXIII, [{[5-methyl-2-(3-nitrophenyl)-1,3-oxazol-4-yl]carbonyl}(pyridin-2-ylmethyl)amino]acetic Acid]",Dose Dependent Inhibition

# Same assay, conditions: inhibitor tested at 6 to 10 concentrations; 30 min pre-incubation at room temperature
row,Structure (SMILES),IC50
1,"Cc1oc(-c2ccccc2)cc1C(=O)N(CC(=O)O)Cc1ccccn1 [Example X, [(2-methyl-5-phenyl-3-furoyl)(pyridin-2-ylmethyl)amino]acetic Acid]",42 µM
2,"COc1cccc(-c2nc(C(=O)N(CC(=O)O)Cc3ccccn3)c(C)o2)c1 [Example XX, [{[2-(3-methoxyphenyl)-5-methyl-1,3-oxazol-4-yl]carbonyl}(pyridin-2-ylmethyl)amino]acetic Acid]",15 µM
3,"COc1ccc(-c2nc(C(=O)N(CC(=O)O)Cc3ccccn3)c(C)o2)cc1 [Example XXI, [{[2-(4-methoxyphenyl)-5-methyl-1,3-oxazol-4-yl]carbonyl}(pyridin-2-ylmethyl)amino]acetic Acid]",75 µM
4,"Cc1oc(-c2ccccc2[N+](=O)[O-])nc1C(=O)N(CC(=O)O)Cc1ccccn1 [Example XXII, [{[5-methyl-2-(2-nitrophenyl)-1,3-oxazol-4-yl]carbonyl}(pyridin-2-ylmethyl)amino]acetic Acid]",141 µM
5,"Cc1oc(-c2cccc([N+](=O)[O-])c2)nc1C(=O)N(CC(=O)O)Cc1ccccn1 [Example XXIII, [{[5-methyl-2-(3-nitrophenyl)-1,3-oxazol-4-yl]carbonyl}(pyridin-2-ylmethyl)amino]acetic Acid]",3.8 µM
6,"O=C(O)CN(Cc1ccccn1)C(=O)c1nc(-c2ccccc2)oc1COCc1ccccc1 [I, {[[5-(benzyloxy)methyl-2-phenyl-1,3-oxazol-4-yl]carbonyl](pyridin-2-ylmethyl)amino}acetic Acid]",265 µM
7,"O=C(O)CN(Cc1ccccn1)C(=O)c1nc(-c2ccccc2)oc1CN1CCOCC1 [II, [{[5-(morpholin-4-ylmethyl)-2-phenyl-1,3-oxazol-4-yl]carbonyl}(pyridin-2-ylmethyl)amino]acetic Acid]",197 µM
8,"COc1cccc(-c2nc(C)c(C(=O)N(CC(=O)O)Cc3ccccn3)o2)c1 [III, [{[2-(3-methoxyphenyl)-4-methyl-1,3-oxazol-5-yl]carbonyl}(pyridin-2-ylmethyl)amino]acetic Acid]",17 µM
9,"CC(=O)Oc1cccc(-c2nc(C)c(C(=O)N(CC(=O)O)Cc3ccccn3)o2)c1 [IV, [({2-[3-(acetyloxy)phenyl]-4-methyl-1,3-oxazol-5-yl}carbonyl)(pyridin-2-ylmethyl)amino]acetic Acid]",52 µM
10,"Cc1nc(-c2ccccc2)sc1C(=O)N(CC(=O)O)Cc1ccccn1 [IX, [[(4-methyl-2-phenyl-1,3-thiazol-5-yl)carbonyl](pyridin-2-ylmethyl)amino]acetic Acid]",52 µM
11,"Cc1nc(-c2ccc(Cl)cc2)oc1C(=O)N(CC(=O)O)Cc1ccccn1 [V, [{[2-(4-chlorophenyl)-4-methyl-1,3-oxazol-5-yl]carbonyl}(pyridin-2-ylmethyl)amino]acetic acid]",54 µM
12,"Cc1nc(-c2ccccc2)oc1C(=O)N(CC(=O)O)Cc1ccccn1 [VI, [[(4-methyl-2-phenyl-1,3-oxazol-5-yl)carbonyl](pyridin-2-ylmethyl)amino]acetic Acid]",71 µM
13,"O=C(O)CN(Cc1ccccn1)C(=O)c1ccc(-c2ccccc2)o1 [VII, [(5-phenyl-2-furoyl)(pyridin-2-ylmethyl)amino]acetic Acid]",100 µM
14,"Cn1nc(-c2ccccc2)cc1C(=O)N(CC(=O)O)Cc1ccccn1 [VIII, [[(1-methyl-3-phenyl-1H-pyrazol-5-yl)carbonyl](pyridin-2-ylmethyl)amino]acetic Acid]",57 µM
15,"Cc1nn(-c2ccccc2)nc1C(=O)N(CC(=O)O)Cc1ccccn1 [XI, [[(5-methyl-2-phenyl-2H-1,2,3-triazol-4-yl)carbonyl](pyridin-2-ylmethyl)amino]acetic Acid]",48 µM
16,"Cc1oc(-c2ccccc2)nc1C(=O)N(CC(=O)O)Cc1ccccn1 [XII, [[(5-methyl-2-phenyl-1,3-oxazol-4-yl)carbonyl](pyridin-2-ylmethyl)amino]acetic Acid]",51 µM
17,"O=C(O)CN(Cc1ccccn1)C(=O)c1nc(-c2ccccc2)oc1C(F)(F)F [XIII, [{[2-phenyl-5-(trifluoromethyl)-1,3-oxazol-4-yl]carbonyl}(pyridin-2-ylmethyl)amino]acetic Acid]",80 µM
18,"Cc1oc(-c2cccc(C(F)(F)F)c2)nc1C(=O)N(CC(=O)O)Cc1ccccn1 [XIV, [({5-methyl-2-[3-(trifluoromethyl)phenyl]-1,3-oxazol-4-yl}carbonyl)(pyridin-2-ylmethyl)amino]acetic Acid]",35 µM
19,"Cc1oc(-c2ccccc2Br)nc1C(=O)N(CC(=O)O)Cc1ccccn1 [XIX, [{[2-(2-bromophenyl)-5-methyl-1,3-oxazol-4-yl]carbonyl}(pyridin-2-ylmethyl)amino]acetic Acid]",44 µM
20,"Cc1cccc(C)c1-c1nc(C)c(C(=O)N(CC(=O)O)Cc2nc3ccccc3s2)s1 [XL, ((1,3-benzothiazol-2-ylmethyl){[4-methyl-2-(2,6-dimethylphenyl)-1,3-thiazol-5-yl]carbonyl}amino)acetic Acid]",50.5 µM
21,"Cc1nc(-c2ccc3ccccc3c2)sc1C(=O)N(CC(=O)O)Cc1nc2ccccc2s1 [XLI, ((1,3-benzothiazol-2-ylmethyl){[4-methyl-2-(2-naphthyl)-1,3-thiazol-5-yl]carbonyl}amino)acetic Acid]",0.48 µM
22,"Cc1oc(-c2ccccc2C(F)(F)F)nc1C(=O)N(CC(=O)O)Cc1ccccn1 [XV, [({5-methyl-2-[2-(trifluoromethyl)phenyl]-1,3-oxazol-4-yl}carbonyl)(pyridin-2-ylmethyl)amino]acetic Acid]",121 µM
23,"Cc1oc(-c2ccc(C(F)(F)F)cc2)nc1C(=O)N(CC(=O)O)Cc1ccccn1 [XVI, [({5-methyl-2-[4-(trifluoromethyl)phenyl]-1,3-oxazol-4-yl}carbonyl)(pyridin-2-ylmethyl)amino]acetic Acid]",142 µM
24,"Cc1oc(-c2cccc(Br)c2)nc1C(=O)N(CC(=O)O)Cc1ccccn1 [XVIII, [{[2-(3-bromophenyl)-5-methyl-1,3-oxazol-4-yl]carbonyl}(pyridin-2-ylmethyl)amino]acetic Acid]",10 µM
25,"Cc1oc(-c2ccc(O)cc2)nc1C(=O)N(CC(=O)O)Cc1ccccn1 [XXIV, [{[2-(4-hydroxyphenyl)-5-methyl-1,3-oxazol-4-yl]carbonyl}(pyridin-2-ylmethyl)amino]acetic Acid]",39 µM
26,"COc1cccc(-c2nc(C)c(C(=O)N(CC(=O)O)Cc3nc4ccccc4s3)o2)c1 [XXIX, ((1,3-benzothiazol-2-ylmethyl){[2-(3-methoxyphenyl)-4-methyl-1,3-oxazol-5-yl]carbonyl}amino)acetic Acid]",0.24 µM
27,"Cc1oc(-c2cccc(O)c2)nc1C(=O)N(CC(=O)O)Cc1ccccn1 [XXV, [{[2-(3-hydroxyphenyl)-5-methyl-1,3-oxazol-4-yl]carbonyl}(pyridin-2-ylmethyl)amino]acetic Acid]",50 µM
28,"Cc1oc(-c2ccccc2N)nc1C(=O)N(CC(=O)O)Cc1ccccn1 [XXVI, [{[2-(2-aminophenyl)-5-methyl-1,3-oxazol-4-yl]carbonyl}(pyridin-2-ylmethyl)amino]acetic Acid]",31 µM
29,"Cc1oc(-c2ccc(N)cc2)nc1C(=O)N(CC(=O)O)Cc1ccccn1 [XXVII, [{[2-(4-aminophenyl)-5-methyl-1,3-oxazol-4-yl]carbonyl}(pyridin-2-ylmethyl)amino]acetic Acid]",22 µM
